Measurements published in article PMC7531004, “Discovery of gramicidin A analogues with altered activities by multidimensional screening of a one-bead-one-compound library” (Nature Communications, 2020).
Where a SMILES comes first, the peptide text is derived from it. [ ]: non-standard residue; d: D form. The star is where a group is joined. NHCH2CH2OH = OCCN*; For = O=C*

Key:
[1] = H+/Na+ transport assay of bead-derived peptides (one-point); type: biochemical; design: key: relative activity; mean of two control wells = 1.00; settings: bead-derived peptide solution, EYPC/EYPG LUVs;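 also: relative to parent gramicidin A activity set to 1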
In short: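 Pyranine (1.0 mM)-loaded LUVs containing egg yolk phosphatidylglycerol were prepared by film hydration, sonication and extrusion, then mixed with diluted bead-derived peptide in 96-well format and vortexed 30 min at room temperature. Fluorescence was normalized between untreated LUVs (0%) and Triton X-100 lysis (100%).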

[2] = system: P388 mouse leukemia cells; settings: 92 h
In short: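 Peptide stocks diluted 250× in growth medium; P388 cells 1 × 10^4 cells/mL final; 37 °C, 5% CO2, 92 h. WST-1 + 1-methoxy PMS, 4 h, A415. Output: % viability.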

[3] = system: Streptococcus pyogenes SSI-9; test: Antibacterial activity assay of bead-derived peptides (three concentrations); type: cell-based; design: key: +++: inhibition by the 640-fold diluted peptide solution; ++: inhibition by the 160-fold diluted solution; +: inhibition by the 40-fold diluted solution; -: no inhibition; settings: S. pyogenes, bead-derived peptide solution, three concentrations
In short: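 Growth inhibition scored visually as precipitated bacteria after 37 °C, 18 h incubation. Streptococcus pyogenes SSI-9 inoculum of 2 × 10^5 CFU in Ca2+/Mg2+-adjusted Mueller Hinton broth plus 5% laked horse blood; peptides tested at three levels: stock, 4-fold and 16-fold DMSO dilutions.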

## CNC(=O)C[C@@H](NC(=O)[C@H](Cc1c[nH]c2ccccc12)NC(=O)[C@H](NC(=O)[C@@H](NC(=O)[C@@H](CC(C)C)NC(=O)[C@H](C)NC(=O)[C@@H](CC(C)C)NC(=O)[C@H](C)NC(=O)CNC(=O)[C@@H](NC=O)C(C)C)C(C)C)C(C)C)C(=O)N[C@@H](Cc1c[nH]c2ccccc12)C(=O)N[C@H](CC(C)C)C(=O)N[C@@H](Cc1c[nH]c2ccccc12)C(=O)N[C@@H](C(=O)N[C@@H](Cc1c[nH]c2ccccc12)C(=O)NCCO)C(C)C [compound 5091] (For-VGA[dL]A[dL]V[dV]W[dD](NHMe)W[dL]W[dV]W-NHCH2CH2OH)
[1]
  H+/Na+ transport activity normalized against the value of 1 (1.00): 1.05
[2]
  cell viability/%: 100.0%
[3]
  antibacterial activity: +

## CC(C)C[C@@H](NC(=O)[C@H](C)NC(=O)CNC(=O)[C@@H](NC=O)C(C)C)C(=O)N[C@@H](C)C(=O)N[C@@H](C(=O)N[C@H](C(=O)N[C@@H](C(=O)N[C@@H](Cc1c[nH]c2ccccc12)C(=O)N[C@H](CC(C)C)C(=O)N[C@@H](Cc1c[nH]c2ccccc12)C(=O)N[C@H](CC(C)C)C(=O)N[C@@H](Cc1c[nH]c2ccccc12)C(=O)N[C@@H](C(=O)N[C@@H](Cc1c[nH]c2ccccc12)C(=O)NCCO)C(C)C)[C@H](C)O)C(C)C)C(C)C [compound 13268] (For-VGA[dL]A[dV]V[dT]W[dL]W[dL]W[dV]W-NHCH2CH2OH)
[1]
  H+/Na+ transport activity normalized against the value of 1 (1.00): 1.03
[2]
  cell viability/%: 100.0%
[3]
  antibacterial activity: +

## CNC(=O)C[C@@H](NC(=O)[C@H](Cc1c[nH]c2ccccc12)NC(=O)[C@H](NC(=O)[C@H](Cc1c[nH]c2ccccc12)NC(=O)[C@H](NC(=O)[C@H](Cc1c[nH]c2ccccc12)NC(=O)[C@@H](CC(C)C)NC(=O)[C@@H](NC(=O)[C@H](NC(=O)[C@H](C)NC(=O)[C@@H](CC(C)C)NC(=O)[C@H](C)NC(=O)CNC(=O)[C@@H](NC=O)C(C)C)C(C)C)C(C)C)C(C)C)C(C)C)C(=O)N[C@@H](Cc1c[nH]c2ccccc12)C(=O)NCCO [compound 6520] (For-VGA[dL]A[dV]V[dL]W[dV]W[dV]W[dD](NHMe)W-NHCH2CH2OH)
[1]
  H+/Na+ transport activity normalized against the value of 1 (1.00): 1.08
[2]
  cell viability/%: 100.0%
[3]
  antibacterial activity: -

## CC(C)C[C@@H](NC(=O)[C@H](Cc1c[nH]c2ccccc12)NC(=O)[C@H](NC(=O)[C@H](Cc1c[nH]c2ccccc12)NC(=O)[C@H](NC(=O)[C@@H](NC(=O)[C@H](NC(=O)[C@H](C)NC(=O)[C@H](NC(=O)[C@H](C)NC(=O)CNC(=O)[C@@H](NC=O)C(C)C)C(C)C)C(C)C)C(C)C)C(C)C)C(C)C)C(=O)N[C@@H](Cc1c[nH]c2ccccc12)C(=O)N[C@@H](C(=O)N[C@@H](Cc1c[nH]c2ccccc12)C(=O)NCCO)C(C)C [compound 6165] (For-VGA[dV]A[dV]V[dV]W[dV]W[dL]W[dV]W-NHCH2CH2OH)
[1]
  H+/Na+ transport activity normalized against the value of 1 (1.00): 1.07
[2]
  cell viability/%: 67.9%
[3]
  antibacterial activity: -

## CC(C)C[C@@H](NC(=O)[C@H](C)NC(=O)[C@H](NC(=O)[C@H](C)NC(=O)CNC(=O)[C@@H](NC=O)C(C)C)C(C)C)C(=O)N[C@H](C(=O)N[C@@H](C(=O)N[C@@H](Cc1c[nH]c2ccccc12)C(=O)N[C@H](CC(C)C)C(=O)N[C@@H](Cc1c[nH]c2ccccc12)C(=O)N[C@H](CC(C)C)C(=O)N[C@@H](Cc1c[nH]c2ccccc12)C(=O)N[C@H](CC(C)C)C(=O)N[C@@H](Cc1c[nH]c2ccccc12)C(=O)NCCO)C(C)C)C(C)C [compound 10593] (For-VGA[dV]A[dL]V[dV]W[dL]W[dL]W[dL]W-NHCH2CH2OH)
[1]
  H+/Na+ transport activity normalized against the value of 1 (1.00): 1.10
[2]
  cell viability/%: 38.5%
[3]
  antibacterial activity: +
